# From PubChem BioAssay (NCI)
#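 Protocol summary: plate cells (96-well), add compound at 5 concentrations, incubate 48 h, interpolate endpoints linearly. GI50 is the concentration that inhibits growth by half. At the TGI there is no net growth.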
# Key:
# Assay in all cases: NCI tumour cell line growth inhibition, 48 h
# [1] = test system: 786-0 renal
# [2] = test system: A549 NSCLC
# [3] = test system: ACHN renal
# [4] = test system: BT-549 breast
# [5] = test system: CAKI-1 renal
# [6] = test system: CCRF-CEM leukemia
# [7] = test system: COLO 205 colon
# [8] = test system: DU-145 prostate
# [9] = test system: EKVX NSCLC
# [10] = test system: HCC-2998 colon
# [11] = test system: HCT-116 colon
# [12] = test system: HCT-15 colon
# [13] = test system: HL-60(TB) leukemia
# [14] = test system: HOP-62 NSCLC
# [15] = test system: HOP-92 NSCLC
# [16] = test system: HS 578T breast
# [17] = test system: HT29 colon
# [18] = test system: IGROV1 ovarian
# [19] = test system: K-562 leukemia
# [20] = test system: KM12 colon
# [21] = test system: LOX IMVI melanoma
# [22] = test system: M14 melanoma
# [23] = test system: MALME-3M melanoma
# [24] = test system: MCF7 breast
# [25] = test system: MDA-MB-231 breast
# [26] = test system: MDA-MB-435
# [27] = test system: MOLT-4 leukemia
# [28] = test system: NCI-H226 lung
# [29] = test system: NCI-H23 lung
# [30] = test system: NCI-H460 lung
# [31] = test system: NCI-H522 lung
# [32] = test system: NCI/ADR-RES ovarian
# [33] = test system: OVCAR-3 ovarian
# [34] = test system: OVCAR-4 ovarian
# [35] = test system: OVCAR-5 ovarian
# [36] = test system: OVCAR-8 ovarian
# [37] = test system: PC-3 prostate
# [38] = test system: RPMI-8226 leukemia
# [39] = test system: RXF 393 renal
# [40] = test system: SF-268 CNS
# [41] = test system: SF-295 CNS
# [42] = test system: SF-539 CNS
# [43] = test system: SK-MEL-2 melanoma
# [44] = test system: SK-MEL-28 melanoma
# [45] = test system: SK-MEL-5 melanoma
# [46] = test system: SK-OV-3 ovarian
# [47] = test system: SN12C renal
# [48] = test system: SNB-19 CNS
# [49] = test system: SNB-75 CNS
# [50] = test system: SR leukemia
# [51] = test system: SW-620 colon
# [52] = test system: TK-10 renal
# [53] = test system: U251 CNS
# [54] = test system: UACC-257 melanoma
# [55] = test system: UACC-62 melanoma
# [56] = test system: UO-31 renal
compound,measurement,setting,value
C[C@]12CC[C@@H]3c4ccc(O)cc4CC[C@H]3[C@@H]1Cc1cnc(N)nc12,GI50,[1],23.3 µM
same,TGI,[1],59.3 µM
same,GI50,[2],44 µM
same,TGI,[2],> 100 µM
same,GI50,[3],21.1 µM
same,TGI,[3],51.3 µM
same,GI50,[4],18.7 µM
same,TGI,[4],53.2 µM
same,GI50,[5],23.8 µM
same,TGI,[5],49.8 µM
same,GI50,[6],15.3 µM
same,TGI,[6],40 µM
same,GI50,[7],13.7 µM
same,TGI,[7],27.6 µM
same,GI50,[8],17.8 µM
same,TGI,[8],47.3 µM
same,GI50,[9],9.47 µM
same,TGI,[9],34.9 µM
same,GI50,[10],9.36 µM
same,TGI,[10],26.1 µM
same,GI50,[11],23.6 µM
same,TGI,[11],69.2 µM
same,GI50,[12],16.5 µM
same,TGI,[12],39.1 µM
same,GI50,[13],22.1 µM
same,TGI,[13],> 100 µM
same,GI50,[14],25.5 µM
same,TGI,[14],59.1 µM
same,GI50,[15],11.7 µM
same,TGI,[15],31.6 µM
same,GI50,[16],18.4 µM
same,TGI,[16],40.7 µM
same,GI50,[17],52.9 µM
same,TGI,[17],> 100 µM
same,GI50,[18],35.1 µM
same,TGI,[18],> 100 µM
same,GI50,[19],7.97 µM
same,TGI,[19],42.6 µM
same,GI50,[20],11.8 µM
same,TGI,[20],26.8 µM
same,GI50,[21],17.4 µM
same,TGI,[21],31.3 µM
same,GI50,[22],18.2 µM
same,TGI,[22],36.4 µM
same,GI50,[23],15.6 µM
same,TGI,[23],29.8 µM
same,GI50,[24],18.8 µM
same,TGI,[24],47.7 µM
same,GI50,[25],13.7 µM
same,TGI,[25],32.8 µM
same,GI50,[26],16.2 µM
same,TGI,[26],43.5 µM
same,GI50,[27],13 µM
same,TGI,[27],41.1 µM
same,GI50,[28],15.2 µM
same,TGI,[28],33.8 µM
same,GI50,[29],18.1 µM
same,TGI,[29],41 µM
same,GI50,[30],9.95 µM
same,TGI,[30],24.9 µM
same,GI50,[31],17.3 µM
same,TGI,[31],41.2 µM
same,GI50,[32],17.7 µM
same,TGI,[32],41.4 µM
same,GI50,[33],23 µM
same,TGI,[33],58.7 µM
same,GI50,[34],32.2 µM
same,TGI,[34],> 100 µM
same,GI50,[35],28.9 µM
same,TGI,[35],76.1 µM
same,GI50,[36],92.9 µM
same,TGI,[36],> 100 µM
same,GI50,[37],15.7 µM
same,TGI,[37],35.9 µM
same,GI50,[38],12.7 µM
same,TGI,[38],31.4 µM
same,GI50,[39],11.5 µM
same,TGI,[39],31.3 µM
same,GI50,[40],13.5 µM
same,TGI,[40],38.8 µM
same,GI50,[41],15.2 µM
same,TGI,[41],42.7 µM
same,GI50,[42],14.8 µM
same,TGI,[42],30.5 µM
same,GI50,[43],26.9 µM
same,TGI,[43],> 100 µM
same,GI50,[44],10.7 µM
same,TGI,[44],26.1 µM
same,GI50,[45],12.8 µM
same,TGI,[45],26.1 µM
same,GI50,[46],12.8 µM
same,TGI,[46],33.5 µM
same,GI50,[47],20.6 µM
same,TGI,[47],44.2 µM
same,GI50,[48],14.4 µM
same,TGI,[48],43 µM
same,GI50,[49],16.5 µM
same,TGI,[49],42.9 µM
same,GI50,[50],7.06 µM
same,TGI,[50],39.2 µM
same,GI50,[51],22.4 µM
same,TGI,[51],45.9 µM
same,GI50,[52],18.9 µM
same,TGI,[52],42.7 µM
same,GI50,[53],17.9 µM
same,TGI,[53],41.6 µM
same,GI50,[54],28.9 µM
same,TGI,[54],74.1 µM
same,GI50,[55],13.6 µM
same,TGI,[55],27.2 µM
same,GI50,[56],19 µM
same,TGI,[56],43.7 µM
